Results from patent publication US9676757B2, “Heterocyclic compounds as NaV channel inhibitors and uses thereof” (Merck Patent GmbH, priority 2014, dated 2017).
pIC50: −log10 of the molar value. Structures can show the parent of a compound that is named as a salt. Where two headings read alike, the source gives them in different places.

How the values were obtained:
Nav1.6 = Nav1.6 (Homo sapiens, UniProt Q9UQD0); test: Nav two-pulse protocol, IonWorks Quattro electrophysiology; type: cell-based; conditions: -120 mV to 0 mV, compound incubated 300 s
Chain of Nav1.6 (Q9UQD0 whole entry): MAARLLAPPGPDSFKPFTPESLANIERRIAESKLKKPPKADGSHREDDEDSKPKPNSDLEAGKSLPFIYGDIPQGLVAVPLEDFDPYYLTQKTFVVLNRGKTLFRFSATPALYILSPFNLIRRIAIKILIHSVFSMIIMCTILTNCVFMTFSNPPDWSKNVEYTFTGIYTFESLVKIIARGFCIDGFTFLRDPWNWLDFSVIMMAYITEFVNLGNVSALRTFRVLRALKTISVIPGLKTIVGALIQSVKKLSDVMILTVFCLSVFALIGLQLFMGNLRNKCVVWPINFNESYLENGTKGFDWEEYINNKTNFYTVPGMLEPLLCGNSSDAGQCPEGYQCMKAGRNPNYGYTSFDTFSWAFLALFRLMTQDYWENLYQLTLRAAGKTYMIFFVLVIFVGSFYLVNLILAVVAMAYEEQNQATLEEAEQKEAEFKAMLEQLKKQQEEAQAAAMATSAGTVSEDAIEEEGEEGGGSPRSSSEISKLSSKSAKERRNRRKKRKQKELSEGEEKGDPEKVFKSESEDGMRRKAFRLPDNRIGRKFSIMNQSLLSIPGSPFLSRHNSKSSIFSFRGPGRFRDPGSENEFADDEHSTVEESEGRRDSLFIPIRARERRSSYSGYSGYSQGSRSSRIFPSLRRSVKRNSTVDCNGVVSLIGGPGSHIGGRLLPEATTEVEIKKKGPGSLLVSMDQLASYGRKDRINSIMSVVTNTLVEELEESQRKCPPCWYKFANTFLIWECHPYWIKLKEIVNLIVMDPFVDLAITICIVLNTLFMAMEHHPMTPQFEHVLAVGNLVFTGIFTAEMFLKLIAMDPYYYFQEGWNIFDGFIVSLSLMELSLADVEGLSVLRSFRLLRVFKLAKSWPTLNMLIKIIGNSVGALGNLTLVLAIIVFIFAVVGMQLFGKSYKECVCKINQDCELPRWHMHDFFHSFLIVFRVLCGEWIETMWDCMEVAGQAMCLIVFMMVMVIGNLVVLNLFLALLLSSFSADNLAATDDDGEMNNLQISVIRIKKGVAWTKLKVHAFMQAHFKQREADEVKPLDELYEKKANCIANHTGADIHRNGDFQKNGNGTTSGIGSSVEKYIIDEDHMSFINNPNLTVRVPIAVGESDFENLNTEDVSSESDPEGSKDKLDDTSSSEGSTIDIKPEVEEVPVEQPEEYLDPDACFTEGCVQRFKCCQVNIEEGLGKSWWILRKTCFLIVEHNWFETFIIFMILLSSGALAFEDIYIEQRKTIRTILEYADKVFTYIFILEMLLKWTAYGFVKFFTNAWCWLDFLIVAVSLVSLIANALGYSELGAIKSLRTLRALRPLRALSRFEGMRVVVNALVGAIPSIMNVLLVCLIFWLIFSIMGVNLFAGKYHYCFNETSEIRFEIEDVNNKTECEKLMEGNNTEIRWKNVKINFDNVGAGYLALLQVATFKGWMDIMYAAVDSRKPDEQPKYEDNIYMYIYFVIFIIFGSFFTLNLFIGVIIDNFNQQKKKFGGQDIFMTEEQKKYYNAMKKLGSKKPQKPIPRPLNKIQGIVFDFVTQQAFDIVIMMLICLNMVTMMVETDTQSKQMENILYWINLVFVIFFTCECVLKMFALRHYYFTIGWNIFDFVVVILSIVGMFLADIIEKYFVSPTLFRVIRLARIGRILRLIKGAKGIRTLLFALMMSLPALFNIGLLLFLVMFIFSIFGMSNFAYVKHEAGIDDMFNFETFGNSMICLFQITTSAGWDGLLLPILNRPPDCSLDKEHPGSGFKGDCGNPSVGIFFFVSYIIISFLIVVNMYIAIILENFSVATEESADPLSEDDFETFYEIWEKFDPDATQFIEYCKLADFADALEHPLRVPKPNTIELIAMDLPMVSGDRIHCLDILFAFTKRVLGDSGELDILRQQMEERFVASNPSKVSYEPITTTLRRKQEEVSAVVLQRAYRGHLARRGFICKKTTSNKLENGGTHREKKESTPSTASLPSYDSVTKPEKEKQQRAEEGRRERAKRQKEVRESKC
Summary of the method: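 Two-pulse protocol on IonWorks Quattro with amphotericin B (200 μg/ml) perforated patch: holding −120 mV, 2.5 s step to 0 mV, 5 ms gap, 20 ms step to 0 mV. Compounds (0.3% DMSO final) incubated 300 s; block taken as Post/Pre peak inward current for each pulse.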

[1] = secondary progressive MS patients; over 2 years; p=0.02; cited from earlier work

| Compound | pIC50 (Nav1.6; read-out: Nav1.6 Tonic) | pIC50 (Nav1.6; read-out: Nav1.6 inac) | deterioration of the timed 25-foot walk [1] |
| --- | --- | --- | --- |
| O=C(C1CN(Cc2cccc(Oc3ccccc3)c2)CCO1)N1CCOCC1 (centres unmarked) [Compound 106, Morpholin-4-yl-[4-(3-phenoxy-benzyl)-morpholin-2-yl]-methanone] | < 4.70 | < 5.30 | – |
| COCCNC(=O)C1CN(Cc2cccc(Oc3ccccc3)c2)CCO1 (centres unmarked) [Compound 107, 4-(3-Phenoxy-benzyl)-morpholine-2-carboxylic acid (2-methoxy-ethyl)-amide] | < 4.70 | 5.30 to 6.00 | – |
| Cc1cc(C)nc(CNC(=O)C2CCN(Cc3cccc(S(=O)(=O)N4CCCC4)c3)C2)c1 (centres unmarked) [Compound 111, 1-[3-(Pyrrolidine-1-sulfonyl)-benzyl]-pyrrolidine-3-carboxylic acid (4,6-dimethyl-pyridin-2-ylmethyl)-amide hydrochloride] | < 4.70 | 5.30 to 6.00 | – |
| Nc1nnc(-c2cccc(Cl)c2Cl)c(N)n1 [Lamotrigine] | – | – | reduced the deterioration of the timed 25-foot walk |

More lines, main results first:

| pIC50 (Nav1.6; read-out: Nav1.6 Tonic) | pIC50 (Nav1.6; read-out: Nav1.6 inac) | Compound | deterioration of the timed 25-foot walk [1] |
| --- | --- | --- | --- |
| < 4.70 | 5.30 to 6.00 | CN1CCN(C(=O)C2CCN(Cc3cccc(Oc4ccccc4)c3)C2)CC1=O (centres unmarked) [Compound 104, 1-Methyl-4-[1-(3-phenoxy-benzyl)-pyrrolidine-3-carbonyl]-piperazin-2-one] | – |
| < 4.70 | 5.30 to 6.00 | O=C(NCc1ccccn1)C1CN(Cc2cccc(Oc3ccccc3)c2)CCO1 (centres unmarked) [Compound 105, 4-(3-Phenoxy-benzyl)-morpholine-2-carboxylic acid (pyridin-2-ylmethyl)-amide] | – |
| < 4.70 | 5.30 to 6.00 | CC1(C(=O)N2Cc3ccncc3C2)CCN(Cc2cccc(Oc3ccccc3)c2)C1 (centres unmarked) [Compound 108, (1,3-Dihydro-pyrrolo[3,4-c]pyridin-2-yl)-[3-methyl-1-(3-phenoxy-benzyl)-pyrrolidin-3-yl]-methanone] | – |
| 4.70 to 5.00 | > 6.00 | O=C(NCc1ccccn1)C1CCN(Cc2cccc(OC(F)(F)F)c2)C1 (centres unmarked) [Compound 109, 1-(3-Trifluoromethoxy-benzyl)-pyrrolidine-3-carboxylic acid (pyridin-2-ylmethyl)-amide hydrochloride] | – |
| 4.70 to 5.00 | > 6.00 | CC1(C(=O)NCc2ccccn2)CCCN(Cc2cccc(Oc3ccccc3)c2)C1=O (centres unmarked) [Compound 110, 3-Methyl-2-oxo-1-(3-phenoxy-benzyl)-piperidine-3-carboxylic acid (pyridin-2-ylmethyl)-amide] | – |
